Experimental data taken from patent US11731943B2, “Therapeutic compounds, compositions and methods of use thereof” (priority 2016, dated 2023).
Read-outs that look alike come from different tables or passages of the source.

Legend:
[1] = molecular target: isolated recombinant JAK2 kinase domain (Homo sapiens (Human), UniProt O60674); test: JAK2 enzyme assay (Caliper LabChip, Ki); assay type: biochemical
Outline: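 Recombinant human JAK1 or JAK2 kinase domain phosphorylating a 5-carboxyfluorescein-labelled JAK3-derived peptide; 30 min at 22 °C, stopped with EDTA (50 mM final). Phosphorylated product measured as a fraction of total peptide by Caliper LabChip mobility shift.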

[2] = molecular target: isolated recombinant JAK1 kinase domain (Homo sapiens (Human), UniProt P23458); test: JAK1 enzyme assay (Caliper LabChip, Ki); assay type: biochemical
isolated recombinant JAK1 kinase domain, sequence (P23458 875-1153): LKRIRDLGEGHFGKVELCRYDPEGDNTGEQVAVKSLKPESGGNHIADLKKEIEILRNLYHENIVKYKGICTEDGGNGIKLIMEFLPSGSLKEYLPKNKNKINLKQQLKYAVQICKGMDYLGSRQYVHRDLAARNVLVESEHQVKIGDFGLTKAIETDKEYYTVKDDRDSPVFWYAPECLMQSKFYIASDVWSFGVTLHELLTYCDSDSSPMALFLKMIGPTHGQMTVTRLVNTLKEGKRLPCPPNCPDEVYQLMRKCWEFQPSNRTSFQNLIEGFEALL
Outline: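 Recombinant human JAK1 kinase domain phosphorylating an N-terminally 5-carboxyfluorescein-labelled JAK3-derived peptide, 30 min at 22 °C, stopped with EDTA (50 mM final). Phosphorylated fraction of total peptide read by Caliper LabChip mobility shift; Ki from Morrison tight-binding fit corrected for ATP competition (Ki=Ki,app/(1+[ATP]/Km,app)).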

[3] = system: JAK1-dependent STAT6 phosphorylation downstream of IL-13 stimulation in BEAS-2B human bronchial epithelial cells; test: JAK1 pathway assay in BEAS-2B cells (IL-13-pSTAT6, MSD); assay type: cell-based
[4] = Homo sapiens, BEAS-2B, BEAS-2B cells, IL-13 stimulation, read-out: IL-13 p-STAT6 BEAS-2B IC50
[5] = BEAS-2B cells, IL-13 stimulation, read-out: IL-13 p-STAT6 BEAS-2B IC50

isolated recombinant JAK2 kinase domain, sequence (O60674 849-1124): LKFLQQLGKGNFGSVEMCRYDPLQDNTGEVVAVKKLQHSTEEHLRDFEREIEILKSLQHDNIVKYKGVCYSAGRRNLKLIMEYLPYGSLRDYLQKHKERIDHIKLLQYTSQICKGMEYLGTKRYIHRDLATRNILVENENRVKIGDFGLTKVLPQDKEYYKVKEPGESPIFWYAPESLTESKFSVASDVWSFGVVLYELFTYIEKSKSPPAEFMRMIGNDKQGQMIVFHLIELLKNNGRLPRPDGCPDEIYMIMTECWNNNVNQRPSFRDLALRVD

| SMILES | Ki [1] | Ki ([2]; read-out: JAK1 Ki) | IC50 [3, 4] | Ki [2] | IC50 ([3]; Homo sapiens, BEAS-2B, read-out: IL-13 p-STAT6 BEAS-2B IC50, BEAS-2B cells, IL-13 stimulation) | IC50 [3, 5] |
| --- | --- | --- | --- | --- | --- | --- |
| COC(=O)Nc1nn(C2(CC#N)CCN(Cc3cc(O)c(-c4ccccc4)cc3F)CC2F)cc1C(N)=O (stereo not drawn) [Example 208, methyl N-[4-carbamoyl-1-[4-(cyanomethyl)-3-fluoro-1-[(2-fluoro-5-hydroxy-4-phenyl-phenyl)methyl]-4-piperidyl]pyrazol-3-yl]carbamate] | 0.21 nM | 0.17 nM | 28 nM | – | – | – |
| N#CCC1(n2cc(C(N)=O)c(NC(=O)C3CC3)n2)CCN(Cc2ccc(-n3nccn3)cc2)CC1F (stereo not drawn) [Example 199, 1-[4-(cyanomethyl)-3-fluoro-1-[[4-(triazol-2-yl)phenyl]methyl]-4-piperidyl]-3-(cyclopropanecarbonylamino) pyrazole-4-carboxamide] | 0.55 nM | 0.52 nM | 64 nM | – | – | – |
| COC(=O)Nc1nn(C2(CC#N)CCN(CC3CCC(c4ccccc4)CC3)CC2F)cc1C(N)=O (stereo not drawn) [Example 235, methyl N-[4-carbamoyl-1-[4-(cyanomethyl)-3-fluoro-1-[(4-phenylcyclohexyl)methyl]-4-piperidyl]pyrazol-3-yl]carbamate] | 0.67 nM | 0.32 nM | 26 nM | – | – | – |
| N#CC[C@]1(n2cc(C(N)=O)c(NC(=O)C3CC3)n2)CC[C@@H](N2CC(F)C2)CC1 [Example 180, 1-[1-(cyanomethyl)-4-(3-fluoroazetidin-1-yl)cyclohexyl]-3-(cyclopropanecarbonylamino) pyrazole-4-carboxamide] | 17.3 nM | – | – | 5.5 nM | 168 nM | – |
| CCc1ccc(-c2ccc(CN3CCC(CC#N)(n4cc(C(N)=O)c(NC(=O)C5CC5C#N)n4)C(F)C3)cc2O)cc1 (stereo not drawn) [Example 222, 3-[(2-cyanocyclopropanecarbonyl)amino]-1-[4-(cyanomethyl)-1-[[4-(4-ethylphenyl)-3-hydroxy-phenyl]methyl]-3-fluoro-4-piperidyl]pyrazole-4-carboxamide] | 0.43 nM | 0.18 nM | – | – | – | 52 nM |
| COC(=O)Nc1nn(C2(CC#N)CCN(Cc3cc(O)c(-c4ccco4)cc3F)CC2F)cc1C(N)=O (stereo not drawn) [Example 238, methyl N-[4-carbamoyl-1-[4-(cyanomethyl)-3-fluoro-1-[[2-fluoro-4-(2-furyl)-5-hydroxy-phenyl]methyl]-4-piperidyl]pyrazol-3-yl]carbamate] | 0.35 nM | 0.29 nM | 18 nM | – | – | – |
| COC(=O)Nc1nn(C2(CC#N)CCN(Cc3ccc(C4=CCCC4)c(O)c3)CC2F)cc1C(N)=O (stereo not drawn) [Example 269, methyl N-[4-carbamoyl-1-[4-(cyanomethyl)-1-[[4-(cyclopenten-1-yl)-3-hydroxy-phenyl]methyl]-3-fluoro-4-piperidyl]pyrazol-3-yl]carbamate] | 0.55 nM | 0.6 nM | 35 nM | – | – | – |
| COC(=O)Nc1nn(C2(CC#N)CCN(Cc3cc(O)c(C)cc3F)CC2F)cc1C(N)=O (stereo not drawn) [Example 292, methyl N-[4-carbamoyl-1-[4-(cyanomethyl)-3-fluoro-1-[(2-fluoro-5-hydroxy-4-methyl-phenyl)methyl]-4-piperidyl]pyrazol-3-yl]carbamate] | 0.7 nM | 0.55 nM | 49 nM | – | – | – |
| CCn1ccc(-c2ccc(CN3CCC(CC#N)(n4cc(C(N)=O)c(NC(=O)OC)n4)C(F)C3)c(F)c2)n1 (stereo not drawn) [Example 241, methyl N-[4-carbamoyl-1-[4-(cyanomethyl)-1-[[4-(1-ethylpyrazol-3-yl)-2-fluoro-phenyl]methyl]-3-fluoro-4-piperidyl]pyrazol-3-yl]carbamate] | 0.51 nM | 0.54 nM | 29 nM | – | – | – |
| N#CCC1(n2cc(C(N)=O)c(NC(=O)C3CC3)n2)CCC(Nc2ccc(C3=CCCC3)cc2)CC1 (stereo not drawn) [Example 275, 1-[1-(cyanomethyl)-4-[4-(cyclopenten-1-yl)anilino]cyclohexyl]-3-(cyclopropanecarbonylamino) pyrazole-4-carboxamide] | 8.1 nM | 1.1 nM | 52 nM | – | – | – |
| COC(=O)Nc1nn(C2(CC#N)CCN(Cc3ccc(-c4ccc(C)o4)cc3)CC2F)cc1C(N)=O (stereo not drawn) [Example 246, methyl N-[4-carbamoyl-1-[4-(cyanomethyl)-3-fluoro-1-[[4-(5-methyl-2-furyl)phenyl]methyl]-4-piperidyl]pyrazol-3-yl]carbamate] | 0.52 nM | 0.35 nM | 19 nM | – | – | – |
| CS(=O)(=O)Nc1cccc(CN2CCC(CC#N)(n3cc(C(N)=O)c(NC(=O)C4CC4)n3)CC2)c1 [Example 45] | 8.5 nM | 1.9 nM | > 1000 nM | – | – | – |
| N#CCC1(n2cc(C(N)=O)c(NC(=O)C3CC3)n2)CCN(Cc2ccc(Cl)cc2)CC1 [Example 60] | 23.4 nM | 3.9 nM | 94 nM | – | – | – |
| N#CC[C@@]1(n2cc(C(N)=O)c(NC(=O)C3CC3)n2)CCN(Cc2ccc(-c3ccccc3)cc2)C[C@H]1F (single isomer, unassigned) [Example 15] | 30.7 nM | 4.2 nM | 282 nM | – | – | – |
| CS(=O)(=O)Nc1cc(F)cc(CN2CCC(CC#N)(n3cc(C(N)=O)c(NC(=O)C4CC4)n3)CC2)c1 [Example 80] | 3.6 nM | 1.2 nM | > 1000 nM | – | – | – |
| N#CCC1(n2cc(C(N)=O)c(NC(=O)C3CC3)n2)CCC(Nc2ccc(-n3nccn3)cc2)CC1 (stereo not drawn) [Example 288, 1-[1-(cyanomethyl)-4-[4-(triazol-2-yl)anilino]cyclohexyl]-3-(cyclopropanecarbonylamino) pyrazole-4-carboxamide] | 4.4 nM | 0.28 nM | 41 nM | – | – | – |
| COC(=O)Nc1nn(C2(CC#N)CCN(Cc3ccc(-c4ccccc4)c(O)c3)CC2F)cc1C(N)=O (stereo not drawn) [Example 195, methyl N-[4-carbamoyl-1-[4-(cyanomethyl)-3-fluoro-1-[(3-hydroxy-4-phenyl-phenyl)methyl]-4-piperidyl]pyrazol-3-yl]carbamate] | 0.15 nM | 0.11 nM | 15 nM | – | – | – |
| COC1CN([C@H]2CC[C@@](CC#N)(n3cc(C(N)=O)c(NC(=O)C4CC4)n3)CC2)C1 [Example 102] | 31.8 nM | – | 933 nM | 3.3 nM | – | – |
| N#CC[C@]1(n2cc(C(N)=O)c(NC(=O)C3CC3)n2)CC[C@@H](N2CC(O)(C(F)(F)F)C2)CC1 [Example 137, 1-[1-(cyanomethyl)-4-[3-hydroxy-3-(trifluoromethyl)azetidin-1-yl]cyclohexyl]-3-(cyclopropanecarbonylamino) pyrazole-4-carboxamide] | 21.7 nM | 2.7 nM | > 1000 nM | – | – | – |
| CCOP(=O)(OCC)c1ccc(Nc2nn([C@]3(CC#N)CC[C@@H](N4CC(C(F)(F)F)C4)CC3)cc2C(N)=O)cc1 [Example 303, Diethyl (4-((4-carbamoyl-1-((1R,4R)-1-(cyanomethyl)-4-(3-(trifluoromethyl)azetidin-1-yl)cyclohexyl)-1H-pyrazol-3-yl)amino)phenyl)phosphonate] | 0.66 nM | 0.39 nM | 34 nM | – | – | – |
| N#CCC1(n2cc(C(N)=O)c(NC(=O)C3CC3)n2)CCN(Cc2ccc(C3=CCCCC3)cc2)CC1F (stereo not drawn) [Example 229, 1-[4-(cyanomethyl)-1-[[4-(cyclohexen-1-yl)phenyl]methyl]-3-fluoro-4-piperidyl]-3-(cyclopropanecarbonylamino) pyrazole-4-carboxamide] | 0.77 nM | 0.48 nM | 25 nM | – | – | – |
| N#CCC1(n2cc(C(N)=O)c(NC(=O)C3CC3)n2)CCC(Oc2ccc(-c3ccccc3)cc2)CC1 (single isomer, unassigned) [Example 210, 1-(4-([1,1′-Biphenyl]-4-yloxy)-1-(cyanomethyl)cyclohexyl)-3-(cyclopropanecarboxamido)-1H-pyrazole-4-carboxamide] | 5.1 nM | 2.1 nM | – | – | – | 75 nM |
| CC(=O)Nc1cccc(CN2CCC(CC#N)(n3cc(C(N)=O)c(NC(=O)C4CC4)n3)CC2)c1 [Example 76] | 36.9 nM | 3.9 nM | > 1000 nM | – | – | – |
| CC(C)OC1(C(F)(F)F)CN([C@H]2CC[C@@](CC#N)(n3cc(C(N)=O)c(NC(=O)C4CC4)n3)CC2)C1 [Example 135] | 24.3 nM | 2.4 nM | 170 nM | – | – | – |
| COC(=O)Nc1nn(C2(CC#N)CCN(Cc3cc(O)c(-c4ccccc4)cc3F)CC2)cc1C(N)=O [Example 206, methyl N-[4-carbamoyl-1-[4-(cyanomethyl)-1-[(2-fluoro-5-hydroxy-4-phenyl-phenyl)methyl]-4-piperidyl]pyrazol-3-yl]carbamate] | 0.3 nM | 0.18 nM | 33 nM | – | – | – |
| CC1(Oc2ccc(C(F)(F)F)cc2)CN(C2CCC(CC#N)(n3cc(C(N)=O)c(NC(=O)C4CC4)n3)CC2)C1 (stereo not drawn) [Example 295, 1-[1-(cyanomethyl)-4-[3-methyl-3-[4-(trifluoromethyl)phenoxy]azetidin-1-yl]cyclohexyl]-3-(cyclopropanecarbonylamino) pyrazole-4-carboxamide] | 2.9 nM | 2 nM | 85 nM | – | – | – |
| Cc1c(CN2CCC(CC#N)(n3cc(C(N)=O)c(NC(=O)C4CC4)n3)C(F)C2)ccc(-c2ccccc2)c1O (stereo not drawn) [Example 213, 1-[4-(cyanomethyl)-3-fluoro-1-[(3-hydroxy-2-methyl-4-phenyl-phenyl)methyl]-4-piperidyl]-3-(cyclopropanecarbonylamino) pyrazole-4-carboxamide] | 0.28 nM | 0.37 nM | 22 nM | – | – | – |
